# Reference: US8865624B2, “Inhibitor for tobacco axillary bud growth and method for inhibiting tobacco axillary bud growth” (SDS Biotech K.K., priority 2010, dated 2014)
# Like-named read-outs stand apart in the source and are kept apart here.
# Experiments:
# [1] = system: Tobacco Michinoku 1 (burley cultivar) axillary buds; experiment: Tobacco axillary bud growth inhibition test, burley cultivar; assay type: in vivo; conditions: Nicotiana tabacum, 672 h, 28 days after the spraying; for pest or weed control at 0.5 %: concentration of active ingredient 0.5%; for pest or weed control at 0.1 %: concentration of active ingredient 0.1%; for pest or weed control at 0.35 %: concentration of active ingredient 0.35%; for pest or weed control at 0.03 %: concentration of active ingredient 0.03%; for pest or weed control at 0.05 %: concentration of active ingredient 0.05%; for pest or weed control at 0.2 %: concentration of active ingredient 0.2%; for pest or weed control at 2.6 %: concentration of active ingredient 2.6%
# Description: (§1) Tobacco seedlings of Tsukuba 1 (flue-cured cultivar) and Michinoku 1 (burley cultivar) were transplanted to 1/5000a Wagner pots filled with Kureha garden nursery soil. The plants were grown in a glasshouse, and the floral axis parts were removed at the time of single-flower bloom of tobacco (top pruning).
# (§2) The formulations of the inhibitors for tobacco axillary bud growth obtained in Formulation Examples 1 to 10 above were each diluted with water to predetermined concentrations, and 20 ml of the water-diluted solutions of the respective inhibitors were separately sprayed using a contact-type axillary bud inhibitor spraying instrument equipped with a spot exhaust nozzle (Examples 1 to 11 and 12 to 22). In addition, butralin (trade name: Blue Ribbon) (Comparative Examples 1 and 3) and decyl alcohol (trade name: Contact) (Comparative Examples 2 and 4) were used for tests as comparative examples in the same manner as above. In the cases of both the flue-cured cultivar and burley cultivar, one plant was planted per pot, and the tests were carried out in duplicate.
# (§3) For the respective cases, states of inhibition of axillary bud growth 28 days after the spraying were investigated together with untreated groups sprayed with no inhibitor, and axillary bud growth inhibition ratios were calculated by the following equation. Axillary bud growth inhibition ratio=(fresh weight of axillary buds per plant of untreated group−fresh weight of axillary buds per plant of treated group)÷(fresh weight of axillary buds per plant of untreated group)×100 [Math. 1]
# (§4) The formulation of Formulation Example 1 (cafenstrole), Formulation Example 2 (thenylchlor) or Formulation Example 10 (propisochlor) above was diluted with water to predetermined concentrations and mixed with decyl alcohol (manufactured by Wako Pure Chemical Industries, Ltd.), 2-ethylhexanol (manufactured by Wako Pure Chemical Industries, Ltd.) or geraniol (manufactured by Wako Pure Chemical Industries, Ltd.) at predetermined concentrations, and the resultant was adjusted and used for tests (Examples 23 to 31 and 32 to 40). In addition, as comparative examples, the formulation of Formulation Example 1, […], or Formulation Example 10 diluted with water to predetermined concentrations (Comparative Examples 5 to 7 and 11 to 13) and decyl alcohol, 2-ethylhexanol or geraniol diluted with water to a predetermined concentration were used for tests (Comparative Examples 8 to 10 and 14 to 16).
# (§5) The respective inhibitors were sprayed in the same manner as in Test Example 1, and states of inhibition of axillary bud growth 28 days after the spraying were investigated together with untreated groups sprayed with no inhibitor. Then, axillary bud growth inhibition ratios were calculated.
# (§6) The formulation of Formulation Example 11 (cafenstrole), Formulation Example 12 (thenylchlor) or Formulation Example 13 (chlorthal-dimethyl) above was diluted with water to predetermined concentrations, and the resultant was mixed, adjusted and used for tests (Examples 41 to 58 and 59 to 76). In addition, as comparative examples, the formulation of Formulation Example 11, Formulation Example 12 or Formulation Example 13 diluted with water to predetermined concentrations (Comparative Examples 21 to 29 and 34 to 42), butralin (trade name: Blue Ribbon) (Comparative Examples 17, 18, 30, and 31) and decyl alcohol (trade name: Contact) (Comparative Examples 19, 20, 32, and 33) were used for tests in the same manner as above.
# [2] = system: Tobacco Tsukuba 1 (flue-cured cultivar) axillary buds; experiment: Tobacco axillary bud growth inhibition test, flue-cured cultivar; assay type: in vivo, Nicotiana tabacum; conditions: for pest or weed control at 0.5 %: concentration of active ingredient 0.5%; for pest or weed control at 0.2 %: concentration of active ingredient 0.2%
# Description: as §1, §2, §3, §4, §5, §6
# [3] = system: Tobacco Michinoku 1 (burley cultivar) leaves (first to fourth leaves from the top); experiment: Harmful effect of inhibitor on tobacco leaves, burley cultivar; assay type: in vivo, Nicotiana tabacum
# Description: as §1, §2
# (§7) Further, the presence or absence of the harmful effect of each inhibitor was evaluated in one of the following four categories depending on the degrees of growth inhibition, gangrene, change in color, deformation and the like of leaves (first to fourth leaves from the top).
# (§8) Large: A severely harmful effect was observed.
# (§9) Middle: A clearly harmful effect was observed.
# (§10) Small: A slightly harmful effect was observed.
# (§11) Absent: No harmful effect was observed.
# as §6, §5
# [4] = system: Tobacco Tsukuba 1 (flue-cured cultivar) leaves (first to fourth leaves from the top); experiment: Harmful effect of inhibitor on tobacco leaves, flue-cured cultivar; assay type: in vivo, Nicotiana tabacum
# Description: as §1, §2, §7, §8, §9, §10, §11, §6, §5
# [5] = Table 4, burley cultivar, read-out: Axillary bud growth inhibition ratio
# [6] = Nicotiana tabacum, 672 h, Table 3, flue-cured cultivar, 28 days after the spraying, read-out: Axillary bud growth inhibition ratio
# [7] = Table 2, burley cultivar, read-out: Axillary bud growth inhibition ratio
# [8] = Table 2, burley cultivar, concentration of active ingredient 0.1%
# [9] = Nicotiana tabacum, 672 h, Table 1, flue-cured cultivar, concentration of active ingredient 0.1%, 28 days after the spraying, read-out: Axillary bud growth inhibition ratio
# [10] = Table 1, flue-cured cultivar, concentration of active ingredient 0.1%
# [11] = read-out: Axillary bud growth inhibition ratio, Table 2, burley cultivar
# [12] = read-out: Axillary bud growth inhibition ratio, Table 6, burley cultivar
# [13] = Nicotiana tabacum, 672 h, read-out: Axillary bud growth inhibition ratio
# [14] = Table 6, burley cultivar, read-out: Axillary bud growth inhibition ratio
smiles,measurement,setting,value
"CCCCC(CC)CO (centres unmarked) [2-Ethylhexanol, 2-ethylhexanol]",pest or weed control at 0.5 %,[1]; [5],34%
same,pest or weed control at 0.5 %,[2]; [6],21%
"CCc1cccc(CC)c1N(COC)C(=O)CCl [Alachlor, alachlor]",pest or weed control at 0.1 %,[1]; [7],91%
same,Harmful effect of inhibitor,[3]; [8],Absent
same,pest or weed control at 0.1 %,[2]; [9],97%
same,Harmful effect of inhibitor,[4]; [10],Absent
"CCCCOCN(C(=O)CCl)c1c(CC)cccc1CC [Butachlor, butachlor]",pest or weed control at 0.1 %,[1]; [7],96%
same,Harmful effect of inhibitor,[3]; in vivo,Absent
same,pest or weed control at 0.1 %,[2]; [9],100%
same,Harmful effect of inhibitor,[4]; in vivo,Absent
"CCC(C)Nc1c([N+](=O)[O-])cc(C(C)(C)C)cc1[N+](=O)[O-] (centres unmarked) [Butralin, butralin]",pest or weed control at 0.35 %,[1]; [11],96%
same,pest or weed control at 0.03 %,[1]; [12],48%
same,pest or weed control at 0.35 %,[1]; [12],97%
same,pest or weed control at 0.03 %,[2]; [13],44%
same,pest or weed control at 0.35 %,[2]; [13],98%
same,Axillary bud growth inhibition ratio,"[2]; Table 5, flue-cured cultivar, concentration of active ingredient 0.35%, 28 days after the spraying",98%
CCN(CC)C(=O)n1cnc(S(=O)(=O)c2c(C)cc(C)cc2C)n1 [Cafenstrole],pest or weed control at 0.1 %,[1]; [11],99%
same,pest or weed control at 0.05 %,"[1]; read-out: Axillary bud growth inhibition ratio, Table 4, burley cultivar",72%
same,pest or weed control at 0.002 %,"[1]; read-out: Axillary bud growth inhibition ratio, Table 6, burley cultivar, concentration of active ingredient 0.002%",15%
same,pest or weed control at 0.005 %,"[1]; read-out: Axillary bud growth inhibition ratio, Table 6, burley cultivar, concentration of active ingredient 0.005%",19%
same,pest or weed control at 0.01 %,"[1]; read-out: Axillary bud growth inhibition ratio, Table 6, burley cultivar, concentration of active ingredient 0.01%",25%
same,Harmful effect of inhibitor,[3]; [8],Absent
same,Harmful effect of inhibitor,"[3]; Table 6, burley cultivar, concentration of active ingredient 0.002%",Absent
same,Harmful effect of inhibitor,"[3]; Table 6, burley cultivar, concentration of active ingredient 0.005%",Absent
same,Harmful effect of inhibitor,"[3]; Table 6, burley cultivar, concentration of active ingredient 0.01%",Absent
same,pest or weed control at 0.002 %,[2]; [13],17%
same,pest or weed control at 0.005 %,[2]; [13],20%
same,pest or weed control at 0.01 %,[2]; [13],23%
same,pest or weed control at 0.05 %,[2]; [13],76%
same,pest or weed control at 0.1 %,[2]; [13],100%
same,Harmful effect of inhibitor,[4]; [10],Absent
same,Harmful effect of inhibitor,"[4]; Table 5, flue-cured cultivar, concentration of active ingredient 0.002%",Absent
same,Harmful effect of inhibitor,"[4]; Table 5, flue-cured cultivar, concentration of active ingredient 0.005%",Absent
same,Harmful effect of inhibitor,"[4]; Table 5, flue-cured cultivar, concentration of active ingredient 0.01%",Absent
"COC(=O)c1c(Cl)c(Cl)c(C(=O)OC)c(Cl)c1Cl [Chlorthal-dimethyl, chlorthal-dimethyl]",pest or weed control at 0.05 %,[1]; [14],39%
same,pest or weed control at 0.1 %,[1]; [14],71%
same,pest or weed control at 0.2 %,[1]; [14],82%
same,Harmful effect of inhibitor,[3]; in vivo,Absent
same,pest or weed control at 0.05 %,"[2]; Nicotiana tabacum, 672 h, Table 5, flue-cured cultivar, concentration of active ingredient 0.05%, 28 days after the spraying, read-out: Axillary bud growth inhibition ratio",43%
same,pest or weed control at 0.1 %,"[2]; Nicotiana tabacum, 672 h, Table 5, flue-cured cultivar, concentration of active ingredient 0.1%, 28 days after the spraying, read-out: Axillary bud growth inhibition ratio",78%
same,pest or weed control at 0.2 %,"[2]; Nicotiana tabacum, 672 h, Table 5, flue-cured cultivar, 28 days after the spraying, read-out: Axillary bud growth inhibition ratio",88%
same,Harmful effect of inhibitor,[4]; in vivo,Absent
"CCCCCCCCCCO [Decyl alcohol, decyl alcohol]",pest or weed control at 2.6 %,[1]; [7],92%
same,pest or weed control at 0.5 %,[1]; [5],46%
same,pest or weed control at 0.03 %,[1]; [14],0%
same,pest or weed control at 2.6 %,[1]; [14],94%
same,pest or weed control at 2.6 %,"[2]; Nicotiana tabacum, 672 h, Table 1, flue-cured cultivar, concentration of active ingredient 2.6%, 28 days after the spraying, read-out: Axillary bud growth inhibition ratio",91%
same,pest or weed control at 0.5 %,[2]; [6],42%
same,pest or weed control at 0.03 %,"[2]; Nicotiana tabacum, 672 h, Table 5, flue-cured cultivar, concentration of active ingredient 0.03%, 28 days after the spraying, read-out: Axillary bud growth inhibition ratio",0%
same,Axillary bud growth inhibition ratio,"[2]; Table 5, flue-cured cultivar, concentration of active ingredient 2.6%, 28 days after the spraying",91%
"COCC(C)N(C(=O)CCl)c1c(C)csc1C (centres unmarked) [Dimethenamid, dimethenamid]",pest or weed control at 0.1 %,[1]; [7],94%
same,Harmful effect of inhibitor,[3]; in vivo,Absent
same,pest or weed control at 0.1 %,[2]; [9],92%
same,Harmful effect of inhibitor,[4]; in vivo,Absent
"CCN(C(=O)n1nnn(-c2ccccc2Cl)c1=O)C1CCCCC1 [Fentrazamide, fentrazamide]",pest or weed control at 0.1 %,[1]; [7],92%
same,Harmful effect of inhibitor,[3]; [8],Absent
same,pest or weed control at 0.1 %,[2]; [9],94%
same,Harmful effect of inhibitor,[4]; [10],Absent
"CC(C)=CCC/C(C)=C/CO [Geraniol, geraniol]",pest or weed control at 0.5 %,[1]; [5],28%
same,pest or weed control at 0.5 %,[2]; [6],30%
CCC1(CC2(c3cccc(Cl)c3)CO2)C(=O)c2ccccc2C1=O (centres unmarked) [Indanofan],pest or weed control at 0.1 %,[1]; [7],95%
same,Harmful effect of inhibitor,[3]; in vivo,Absent
same,pest or weed control at 0.1 %,[2]; [9],100%
same,Harmful effect of inhibitor,[4]; in vivo,Absent
"CCc1cccc(C)c1N(C(=O)CCl)C(C)COC (centres unmarked) [Metolachlor, metolachlor]",pest or weed control at 0.1 %,[1]; [7],91%
same,Harmful effect of inhibitor,[3]; [8],Absent
same,pest or weed control at 0.1 %,[2]; [9],95%
same,Harmful effect of inhibitor,[4]; [10],Absent
CCCOCCN(C(=O)CCl)c1c(CC)cccc1CC [Pretilachlor],pest or weed control at 0.1 %,[1]; [7],92%
same,Harmful effect of inhibitor,[3]; [8],Absent
same,pest or weed control at 0.1 %,[2]; [9],93%
same,Harmful effect of inhibitor,[4]; [10],Absent
"CCc1cccc(C)c1N(COC(C)C)C(=O)CCl [Propisochlor, propisochlor]",pest or weed control at 0.1 %,[1]; [7],84%
same,pest or weed control at 0.2 %,[1]; [7],95%
same,pest or weed control at 0.1 %,[1]; [5],83%
same,Harmful effect of inhibitor,[3]; in vivo,Absent
same,pest or weed control at 0.1 %,[2]; [9],86%
same,pest or weed control at 0.2 %,"[2]; Nicotiana tabacum, 672 h, Table 1, flue-cured cultivar, 28 days after the spraying, read-out: Axillary bud growth inhibition ratio",98%
same,Axillary bud growth inhibition ratio,"[2]; Table 3, flue-cured cultivar, concentration of active ingredient 0.1%, 28 days after the spraying",86%
same,Harmful effect of inhibitor,[4]; in vivo,Absent
